Measured values published in patent US20130059772A1, “Use of Repeat Sequence Protein Polymers in Personal Care Compositions” (DANISCO US INC., priority 2003, published 2013).

Tested on: facial skin
Assay: Skin efficacy study: image analysis of Silflo replicas (fine line factors)
Format: in vivo, human
Description: Eleven impaneled subjects (age 35-70 years) showing clear signs of facial skin aging were provided with a non-moisturizing soap, ([…]®), one week prior to the study and were instructed to use the provided soap to wash the face and were required to refrain from excessive UV exposure. After a seven-day conditioning phase, subjects were acclimated to the ambient temperature and humidity for thirty minutes. One side of the face of each subject was designated as the measurement side by random selection by computer. After 30-minute acclimation period, baseline digital photographs were taken, and instrumental measurements, skin replica samples and visual evaluations were made. Photographs were taken, with a Canfield Scientific Camera, of the full face, the periorbital area, and the temporal side of eye. Chromameter (Model CR300, Minolta) measurements were taken from the periorbital area directly under the eye (Chardon et al., Int. J. Cosmet. Sci., 13:191-208 [1991]). Silflo replicas (CuDerm Corporation, Dallas, Tx) were made from the periorbital area adjacent to the temporal side of the eye (Grove et al., J. Am. Acad. Dermatol., 21:631-637 [1998]; and Sun et al […] Conference, Mexico). […] Specifically, the fine line factors, which approximate the number and/or length of facial lines in the 10 evaluated bands of skin replica, were measured. […]

## SELP47K: silk-elastin repeat sequence protein copolymer, head-[(GAGAGS)2(GVGVP)3GKGVP(GVGP)4(GAGAGS)2]13-tail (SEQ ID NO:19), 886 amino acids
5% aqueous solution applied once to face, 30 Minutes Post, baseline mean 284
  Fine Line Factors, Mean: 246
5% aqueous solution, 30 minutes after application vs baseline, p=0.05
  decrease in fine line factors: 13%
